Measurements published in patent US20120040976A1, “SMALL MOLECULE IMMUNOMODULATORS FOR ALZHEIMER'S DISEASE” (HUMAN BIOMOLECULAR RESEARCH INSTITUTE, priority 2008, published 2012).
In brackets after ≈: the same amount, converted by molar mass.

Key:
[1] = Metabolic stability in human liver microsomes; type: in vitro ADME; details: human, read-out: Half life, t1/2 HLM
[2] = test system: cortical neurons in hAPP-transfected rat brain slices; experiment: Rat brain slice AD model (hAPP-induced neurodegeneration); type: cell-based; details: rat brain slices transfected with EYFP and hAPP, three concentrations, 72 hrs (FIG. 8)
From the text: A rodent brain slice model for AD has been developed where the expression of human APP by particle-mediated gene transfer (“biolistics”) leads to typical signs of neuronal dystrophy, and ultimately the degeneration and clearance of the cell body with a few days. Brain slice preparations offer a powerful experimental system because they preserve the three-dimensional tissue architecture and local environment of neurons and glia far better than dissociated cell culture. As such, drug lead candidates that show neuroprotective activity in brain-tissue based disease models have a much increased ability to predict efficacy in vivo and ultimately in the clinic.
Preparation of Brain Slice Explants. Cd Sprague-Dawley Rat Pups are Used at Postnatal day 10. Brains are cut into 250 μm coronal slices on a vibratome in chilled medium baths. Approximately 6 such slices can be cut from each rat brain; each are divided into “hemi-coronal” slices which are placed in individual 6-well transwell inserts. […]
Assessment of cortical neuron health. […] Representative images are captured using a digital camera on a fluorescence microscope. After 3 days, cortical neurons are scored. […] Statistical significance of the neuronal counts in compound-treated slices is evaluated by ANOVA analysis, followed by post hoc Dunnett's analysis at the p≦0.05 confidence level. […]

[3] = Chemical stability (H2O, pH 7.4); type: physicochemical
Average solubility = type: physicochemical
MGAT3 [4] = experiment: MGAT3 transcription ratio, AD patient / control PBMCs (qPCR); type: cell-based, human; details: Aβ stimulation
Protocol: (§1) qPCR reactions of cultured monocyte cDNAs. One μL total cellular cDNA per reaction is used in triplicate reactions for each test gene, and for each culture treatment. SYBR-Green reactions were run on a Continuous Fluorescence real-time thermocycler and analyzed. Cycle threshold (Ct) values are recorded for each replicate reaction, and are then averaged and normalized against mean Ct values from one or more control genes. Fold-expression differences relative to untreated cells are determined using the 2^−ΔΔCt method as previously described. Data from the curcumin concentration range are plotted in order to determine EC50 values (concentrations producing one-half maximal stimulant activity), which are used for comparisons of potency between different compounds. Data are also evaluated for each gene with regard to sensitivity, maximally effective concentration of curcuminoid, response to Aβ, and overall magnitude of fold-expression changes.
MGAT3 and/or TLR transcription were tested by qPCR in human monocyte cells treated with curcuminoids and compared the results to those treated with vehicle (Table 7). As discussed above, activation or up-regulation of macrophage MGAT3 or TLR's results in many functional outcomes, including the enhancement of […] and removal of Aβ, increased apoptosis, secretion of inflammatory cytokines, and other anti-AD antimicrobial activities. […] Thus, the ratio of MGAT3 or TLR transcription upon Aβ stimulation of human monocytes versus vehicle treatment provides an indicator and sensitive method to test the in vitro efficacy of drug candidates. […] The relative biological activity of the curcumin analogs in AD patient and control cells was ascertained in the in vitro Aβ assay described above (see Example 2).

[5] = Metabolic stability in human S9 fraction; type: in vitro ADME; details: read-out: Half life, t1/2 S9
Average permeability = type: in vitro ADME; details: not told
TLR4 = TLR4 gene expression by qPCR in U-937 human monocytic cells treated with curcumins plus Aβ; type: cell-based
Protocol: (§2) Cell culture conditions for monocytic cell lines. Human and mouse monocyte cell lines are grown in RPMI-1640 medium with 10% fetal bovine serum (FBS), plus glutamine and pen/strep. For treatment with compounds (curcuminoids+/−Aβ), replicate sets of 0.5-1.0 mL cultures containing 1-2×10^6 cells are set up in the wells of 48-well tissue culture plates. Both replicate sets have at least one control well receiving no added curcuminoid to provide baseline expression controls for untreated, and Aβ-only treated cells. Remaining wells receive curcuminoid in a range of 10-fold serial dilutions in DMSO, typically from […] Cultures are incubated for 20-24 hours (“overnight”) at 37° C. in atmosphere with 5% CO2. After one overnight, to one of replicate sets of cultures is added Aβ (1-42) peptide to a final concentration of 5 μg/mL.
(§3) RNA isolation and cDNA synthesis. After the first overnight incubation in the presence of curcuminoid, cells from one replicate set of wells are collected by centifugation. RNAs are extracted from pelleted cells using miniprep column kits following manufacturer's protocol for animal cells. […] of total cellular RNA from each well is quantitated using a Nanodrop spectrophotometer, and first-strand total cDNA is prepared from 0.3-1.0 μg RNA by random-hexamer priming. Following the second 20 hr. incubation in the presence of Aβ, RNA extractions and cDNA synthesis are similarly performed.
(§4) Assay development. Gene-specific mRNA levels are determined using a real-time thermocycler, and by normalizing to expression of one or more control genes. Assays for quantifying mRNA levels are based on gene sequences reported in NCBI Genbank. PCR oligonucleotide primers are selected spanning introns to minimize the opportunity for amplication from any contaminating genomic DNA in the RNA preps. Oligonucleotides are typically tested and used at a concentration of 200 nM in qPCR reactions containing SYBR dye. Control reactions include template from cDNA synthesis reactions either + or − reverse transcriptase (RT), as well as no-template controls (ntc). All reactions are performed in triplicate. Reactions are typically run with 40 cycles of 95° C. (10 sec) and 58° C. (30 sec). Melt curves based on incremental 0.5° C. increases are determined for new assays to test for uniformity of amplified products. Reaction conditions are modified as needed depending on initial test results. ‘Working’ assays are selected based on clear RNA-dependent amplification and absence of product in ‘ntc’ reactions. The following assay primers are used: […]
as §1, with “Data from the curcumin concentration range are plotted in order to determine EC50 values (concentrations producing one-half maximal stimulant activity), which are used for comparisons of potency between different compounds.” left out, “changes. […]” for “changes.”

TLR2 = TLR2 gene expression by qPCR in U-937 human monocytic cells treated with curcumins plus Aβ; type: cell-based
Protocol: as §2, §3, §4
as §1, with “Data from the curcumin concentration range are plotted in order to determine EC50 values (concentrations producing one-half maximal stimulant activity), which are used for comparisons of potency between different compounds.” left out, “changes. […]” for “changes.”

ALS PBMCs = experiment: Mutant SOD-1 induced polarization of ALS PBMCs to the Th17 type; type: cell-based, human
From the text: (§5) More recently, it was shown that PBMCs isolated from ALS patients, and to a lesser extent from control subjects, strongly express COX-2 and other cytokines after stimulation with aggregated wild-type or mutant SOD-1. […] It was also shown that mutant SOD-1 induced polarization of ALS PBMCs to the Th17 type, but the induction was inhibited by 10.

MGAT3 [6] = experiment: MGAT3 gene expression by qPCR in U-937 human monocytic cells treated with curcumins plus Aβ; type: cell-based; details: human monocytic cells (U-937), curcumin plus Aβ
Protocol: as §2, §3
as §4, with “All reactions are performed in triplicate. Reactions are typically run with 40 cycles of 95° C. (10 sec) and 58° C. (30 sec).” left out, “products.” for “products. Reaction conditions are modified as needed depending on initial test results. ‘Working’ assays are selected based on clear RNA-dependent amplification and absence of product in ‘ntc’ reactions. The following assay primers are used:”
qPCR reactions of cultured monocyte cDNAs. […] SYBR-Green reactions were run on a Continuous Fluorescence real-time thermocycler and analyzed. Cycle threshold (Ct) values are recorded for each replicate reaction, and are then averaged and normalized against mean Ct values from one or more control genes. Fold-expression differences relative to untreated cells are determined using the 2^−ΔΔCt method as previously described. […] Data are also evaluated for each gene with regard to sensitivity, maximally effective concentration of curcuminoid, response to Aβ, and overall magnitude of fold-expression changes. […]

VDR = VDR gene expression by qPCR in U-937 human monocytic cells treated with curcumins plus Aβ; type: cell-based
Protocol: as §2, §3, §4, §1
(§6) Data showing in vitro up-regulation of genes associated with Aβ phagocytosis in response to curcumins. Natural curcumins and synthetic analogs were tested in U-937 human monocyte cells in vitro for their ability to modulate expression of the genes MGAT3 and TLRs −2, −3, and −4. […]

COX-2 = experiment: Inhibition of SOD1-induced COX-2 expression in ALS PBMCs; type: cell-based, human; details: aggregated wild-type or mutant SOD-1
From the text: as §5

TLR3 = TLR3 gene expression by qPCR in U-937 human monocytic cells treated with curcumins plus Aβ; type: cell-based
Protocol: as §2, §3, §4, §1, §6

[7] = human monocytic cells (U-937), curcumin plus Aβ

In the case of `COc1cc(/C=C/C(=O)/C=C(O)/C=C/c2ccc(O)c(OC)c2)ccc1O` [Compound 2, 1,7-Bis(4-hydroxy-3-methoxyphenyl)-5-hydroxy-hepta-1,4,6-trien-3-one, reference compound], the half-life [1] is reported as 40.8 min, the “Neuroprotective effect against hAPP-induced neurodegeneration” value [2] is reported as “prevent widespread neurodegeneration in a dose-dependent manner” and the half-life ([3]; water (aqueous solution), pH 7.4, read-out: Chemical stability t1/2 pH 7.4 (converted)) is reported as 15.9 min. The half-life ([3]; water, H2O, read-out: Chemical stability t1/2 H2O (converted)) was 73.5 min, the IC50 (Anti-oxidant activity) was 31.7 µM and the solubility (Average solubility) was 9.5 µg/mL (≈ 25.8 µM). For the same compound, the “Relative ratio of MGAT3 transcription in AD patient / control PBMC's” value (MGAT3 [4]) was “+ ((+) indicates a ratio of 1.0-1.5)”, the half-life [5] was 10.1 min and the Papp (Average permeability) was 844 ± 24 ×10⁻⁶ cm/s.
In the case of `CN(C)c1ccc(/C=C/C(O)=C2\CCC/C(=C\c3ccc(N(C)C)cc3)C2=O)cc1` [Compound 10], the “Concentration giving maximal TLR4 response” value (TLR4; U-937, plus Aβ (FIG. 4)) is reported as “approximately 10 nM”, the “Relative gene expression TLR4, increased expression relative to control cells” value (TLR4; [7]) is reported as “+ ((+) <20-fold)” and the “Concentration giving maximal TLR2 expression” value (TLR2; U-937, in the presence of Aβ (FIG. 2)) is reported as 1 nM. For the same compound, the “Relative gene expression TLR2, increased expression relative to control cells” value (TLR2; [7]) was “++ ((++) >20-fold)”, the “Induction of Th17 polarization by mutant SOD-1” value (ALS PBMCs) was “inhibited” and the half-life [1] was 127 min. For the same compound, the “Chemical stability H2O (stable/unstable)” value ([3]; H2O) was “stable (stability half-lives greater than 5 hours)”, the “Stability compared with BDC (in words)” value ([3]; chemical and metabolic stability) was “markedly greater stability than BDC” and the “Chemical stability pH 7.4 (stable/unstable)” value ([3]; pH 7.4) was “stable (stability half-lives greater than 5 hours)”. For the same compound, the “Relative gene expression MGAT3, increased expression relative to control cells” value (MGAT3 [6]) was “+++ ((+++) >40-fold)”, the VDR expression increase (VDR; human monocytes, plus Aβ (FIG. 5)) was 10^3 fold and the “Relative gene expression VDR, increased expression relative to control cells” value (VDR; [7]) was “+++++ ((+++++) >1000-fold)”. The “Induction of COX-2 by SOD-1 after pretreatment” value (COX-2) was “blocked”, the “TLR3 expression response (in words)” value (TLR3; U-937, plus Aβ (FIG. 3)) was “considerably higher expression” and the “Relative gene expression TLR3, increased expression relative to control cells” value (TLR3; [7]) was “+++ ((+++) >40-fold)”. It also gave an IC50 (Anti-oxidant activity) of 155 µM and a half-life [5] of 311 min.
